Test results: patent publication US20250009751A1, “FORMULATIONS OF ANTIVIRAL COMPOUNDS” (Merck Sharp & Dohme LLC, priority 2018, published 2025)

Experiment: pH-dependent solubility of Compound A
Type: physicochemical
Settings: particularly between pH 1-4

- solubility profile: sharp pH-dependent solubility profile
SMILES: COC(=O)N[C@H](C(=O)N1CCC[C@H]1c1ncc(-c2cc(F)c3c(c2)O[C@@H](c2cnc(C4CC4)s2)n2c-3cc3cc(-c4cnc([C@@H]5CCCN5C(=O)[C@@H](NC(=O)OC)C(C)C)[nH]4)ccc32)[nH]1)C(C)C [Compound A, dimethyl ((2S,2′S)-((2S,2′S)-2,2′-(5,5′-((S)-6-(2-cyclopropylthiazol-5-yl)-1-fluoro-6H-benzo[5,6][1,3]oxazino[3,4-a]indole-3,10-diyl)bis(1H-imidazole-5,2-diyl))bis(pyrrolidine-2,1-diyl))bis(3-methyl-1-oxobutane-2,1-diyl))dicarbamate]
